Patent publication US6342503B1, “1N-alkyl-n-arylpyrimidinamines and derivatives thereof” (DuPont Pharmaceuticals Company, priority 1993, dated 2002)
Structures can show the parent of a compound that is named as a salt.

How the values were obtained:
CRF receptor = target: T1, CRF receptor (Rattus norvegicus, UniProt P35353); assay: In vitro CRF receptor binding assay (competition with [125I] ovine CRF, rat cortex membranes); settings: read-out: Inhibition Ki
T1 construct: 100 μl of membrane suspension as prepared above to give a total reaction volume of 300 μl; from tissue; host or cells: rat cerebral cortex membrane homogenate
T1 sequence (P35353 24-415): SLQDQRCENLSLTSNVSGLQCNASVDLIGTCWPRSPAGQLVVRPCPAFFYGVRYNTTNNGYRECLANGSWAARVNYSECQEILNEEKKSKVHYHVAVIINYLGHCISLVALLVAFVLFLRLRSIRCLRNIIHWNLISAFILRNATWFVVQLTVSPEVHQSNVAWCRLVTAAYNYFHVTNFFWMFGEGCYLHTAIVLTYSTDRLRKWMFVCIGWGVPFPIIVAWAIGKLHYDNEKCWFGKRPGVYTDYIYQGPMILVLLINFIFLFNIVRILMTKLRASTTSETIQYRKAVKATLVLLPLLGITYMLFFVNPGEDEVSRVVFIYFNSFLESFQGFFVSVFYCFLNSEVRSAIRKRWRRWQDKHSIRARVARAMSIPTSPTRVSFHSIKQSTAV

Compound | melting point | Ki (CRF receptor)
CCN(c1nc(C)cc(OCCN(C)C)n1)c1ccc(C(C)C)cc1Br (as salt: hydrochloride) [compound 161] | 143 to 146 °C | –
Cc1cc(C)nc(N2CCCSc3cc(C(C)C)ccc32)n1 (as salt: hydrochloride) [compound 173] | 157 to 159 °C | –
CCN(c1nc(C)cc(OC[C@@H]2CCCN2C)n1)c1ccc(C(C)C)cc1SC (as salt: hydrochloride) [compound 177, N-(2-methylthio4-(1-methylethyl)phenyl)-N-ethyl-4(S)-(N-methyl-2′-pyrrolidinomethoxy)-6-methyl-2-pyrimidinamine] | 101 to 103 °C | –
CCN(c1nc(C)nc(OCc2ccccc2)n1)c1ccc(C(C)C)cc1Br (as salt: hydrochloride) [compound 242, N-[2-bromo-4(1-methylethyl)phenyl]-N-ethyl-4-methyl-6-benzyloxy-1,3,5 triazin-2-amine] | 89 to 90 °C | –
Cc1cc(C)c2c(C#N)cn(-c3ccc(C(C)C)cc3Br)c2n1 [Example 254] | 105.8 °C | < 0.5 µM
Cc1cc(Cl)c2c(C#N)cn(-c3ccc(C(C)C)cc3Br)c2n1 [Example 255] | 179.2 °C | 0.501 to 2 µM
Cc1cc(Cl)nc2c1c(C#N)cn2-c1ccc(C(C)C)cc1Br [Example 262] | 123.8 °C | < 0.5 µM
Cc1cc(Cl)c2c(C#N)cn(-c3ccc(C(C)C)cc3Br)c2n1 [Synth. Ex. 74, 1-(2-Bromo-4-isopropylphenyl)-4-chloro-3-cyano-6-methyl-7-azaindole] | 123.3 °C | –
Cc1ccc(N(C)c2nc(C)cc(N3CCOCC3)n2)c(Br)c1 [compound 6] | 40 to 42 °C | 0.501 to 2 µM
COc1cc(OC)c(N(C)c2nc(C)cc(C)n2)c(OC)c1 [compound 14] | 145 to 146 °C | 0.501 to 2 µM
CCN(c1nc(C)cc(C)n1)c1c(OC)cc(OC)cc1OC [compound 15] | 115 to 116 °C | < 0.5 µM
CCCCc1ccc(N(CCC)c2nc(C)cc(C)n2)c(Br)c1 [compound 20] | 49 to 50 °C | < 0.5 µM
CCN(c1nc(C)cc(N2CCN(C=O)CC2)n1)c1ccc(C(C)C)cc1Br [compound 25] | 61 to 63 °C | < 0.5 µM
CCN(c1nc(C)cc(N2CCOCC2)n1)c1ccc(C(C)C)cc1I [compound 30, N-Ethyl-N-(2-iodo4-(1-methylethyl)phenyl)4-morpholinyl-6-methyl-2-pyrimidinamine] | 96 to 98 °C | < 0.5 µM
CCN(c1nc(C)cc(N2CC[S+]([O-])CC2)n1)c1ccc(C(C)C)cc1I [compound 56, N-ethyl-N-(2-iodo4-(1-methylethyl)phenyl)4-thiomorpholino-6-methyl-2-pyrimidinamine, S-oxide] | 52 to 55 °C | < 0.5 µM
CCN(c1nc(C)cc(C(=O)N2CCCCC2)n1)c1ccc(C(C)C)cc1Br [compound 60] | 107 to 108 °C | 0.501 to 2 µM
CCN(c1nc(C)cc(C(=O)NC2CCCCC2)n1)c1ccc(C(C)C)cc1Br [compound 62] | 115 °C | 0.501 to 2 µM
CCN(c1nc(C)cc(C)n1)c1c(Cl)cc(OC)cc1OC [compound 141] | 99 to 102 °C | < 0.5 µM
COc1cc(Cl)c(Nc2nc(C)cc(C)n2)c(OC)c1 [compound 145] | 170 to 173 °C | 2 to 10 µM
C=CCN(c1nc(C)cc(N2CCOCC2)n1)c1ccc(C(C)C)cc1I [compound 165, N-(2-iodo4-(1-methylethyl)phenyl)-N-allyl4-morpholino-6-methyl-2-pyrimidinamine] | 109 to 112 °C | < 0.5 µM
Cc1cc(N2CCSCC2)nc(Nc2c(Br)cc(C(C)C)cc2Br)n1 [compound 166, N-(2,6-dibromo-4-(1-methylethyl)phenyl)4-thiomorpholino-6-methyl-2-pyrimidinamine] | 194 to 195 °C | < 0.5 µM
CCN(c1nc(C)cc(N2CCCC2)n1)c1ccc(C(C)C)cc1Br [compound 192] | 106 to 107 °C | < 0.5 µM
Cc1cc(N2CCCC2)nc(N(C)c2ccc(C(C)C)cc2Br)n1 [compound 193] | 119 to 120 °C | < 0.5 µM
CCc1cc(N2CCCCC2)nc(N(C)c2ccc(C(C)C)cc2Br)n1 [compound 194] | 211 to 212 °C | < 0.5 µM
Cc1cc(N2CCCCC2)nc(N(C)c2ccc(C(C)C)cc2Br)n1 [compound 195] | 186 to 187 °C | < 0.5 µM

Results, then the molecule that gave them:

melting point | Ki (CRF receptor) | Compound
141 to 142 °C | – | CCN(c1nc(C)cc(C)n1)c1ccc(C(C)C)cc1SC (as salt: hydrochloride) [compound 170, N-(2-methylthio-4-(1-methylethyl)phenyl)-N-ethyl-4,6dimethyl-2-pyrimidinamine]
128 to 130 °C | – | CCSc1cc(C(C)C)ccc1N(CC)c1nc(C)cc(C)n1 (as salt: hydrochloride) [compound 175, N-(2-ethylthio-4-(1-methylethyl)phenyl)-N-ethyl-4,6dimethyl-2-pyrimidinamine]
140 to 141 °C | – | CCc1ccc(N(CC)c2nc(C)cc(C)n2)c(SC)c1 (as salt: hydrochloride) [compound 182, N-(4-ethyl-2-methylthiophenyl)-N-ethyl-4,6-dimethyl-2-pyrimidinamine]
94 to 95 °C | 0.501 to 2 µM | CCN(c1nc(C)cc(C)n1)c1ccccc1Br [compound 5]
120 to 121 °C | < 0.5 µM | CCN(c1nc(C)cc(C)n1)c1ccc(OC)cc1OC [compound 7]
58 to 60 °C | 2 to 10 µM | CCN(c1nc(C)cc(C)n1)c1ccc(CCO)cc1Br [compound 64, N-(2-Bromo-4-(2-hydroxyethyl)phenyl)-N-ethyl-4,6-dimethyl-2-pyrimidinamine]
64 to 66 °C | < 0.5 µM | CCN(c1nc(C)cc(C)n1)c1ccc(C(C)C)cc1SC [compound 168, N-(2-methylthio-4-(1-methylethyl)phenyl)-N-ethyl-4,6-dimethyl-2-pyrimidinamine]
144 to 146 °C | – | CCN(c1nc(C)cc(C)n1)c1ccc(C(C)C)cc1[S+](C)[O-] (centres unmarked) [compound 169, N-(2-methylsulfinyl-4-(1-methylethyl)phenyl)-N-ethyl-4,6-dimethyl-2-pyrimidinamine]
174 to 176 °C | < 0.5 µM | CCN(c1nc(C)cc(C)n1)c1ccc(C(C)C)cc1S(C)(=O)=O [compound 174, N-(2-methylsulfonyl-4-(1-methylethyl)phenyl)-N-ethyl-4,6-dimethyl-2-pyrimidinamine]
91 to 93 °C | < 0.5 µM | CCN(c1nc(C)cc(C)n1)c1ccc(Br)cc1SC [compound 180, N-(4-bromo-2-methylthiophenyl)-N-ethyl-4,6-dimethyl-2-pyrimidinamine]
85 to 87 °C | < 0.5 µM | CCc1ccc(N(c2nc(C)cc(C)n2)C(C)C)c(SC)c1 [compound 181, N-(4-ethyl-2-methylthiophenyl)-N-(1-methylethyl)4,6-dimethyl-2-pyrimidinamine]
158 to 160 °C | 2 to 10 µM | CCN(c1nc(C)cc(C)n1)c1ccc(N(C)C(C)=O)cc1SC [compound 183, N-(2-methylthio-4-(N-acetyl-N-methylamino)phenyl)-N-ethyl-4,6-dimethyl-2-pyrimidinamine]
99 to 100 °C | 0.501 to 2 µM | CCOC(=O)c1ccc(N(CC)c2nc(C)cc(C)n2)c(SC)c1 [compound 184, N-(4-carboethoxy-2-methylthiophenyl)-N-ethyl-4,6-dimethyl-2-pyrimidinamine]
128 to 130 °C | < 0.5 µM | CCN(c1nc(C)cc(C)n1)c1ccc(OC)cc1SC [compound 185, N-(4-methoxy-2-methylthiophenyl)-N-ethyl-4,6-dimethyl-2-pyrimidinamine]
99 to 100 °C | < 0.5 µM | CCN(c1nc(C)cc(C)n1)c1ccc(C#N)cc1SC [compound 186, N-(4-cyano-2-methylthiophenyl)-N-ethyl-4,6-dimethyl-2-pyrimidinamine]
125 to 126 °C | < 0.5 µM | CCN(c1nc(C)cc(C)n1)c1ccc(C(C)=O)cc1SC [compound 187, N-(4-acetyl-2-methylthiophenyl)-N-ethyl-4,6-dimethyl-2-pyrimidinamine]
139 to 141 °C | < 0.5 µM | CCC(=O)c1ccc(N(CC)c2nc(C)cc(C)n2)c(SC)c1 [compound 188, N-(4-propionyl-2-methylthiophenyl)-N-ethyl-4,6-dimethyl-2-pyrimidinamine]
141 to 142 °C | < 0.5 µM | CCN(c1nc(C)cc(C)n1)c1ccc(NC)cc1SC [compound 190, N-(4-(N-methylamino)-2-methylthiophenyl)-N-ethyl-4,6-dimethyl-2-pyrimidinamine]
119 to 120 °C | < 0.5 µM | CCN(c1nc(C)cc(C)n1)c1ccc(N(C)C)cc1SC [compound 191, N-(4-(N,N-dimethylamino)-2-methylthiophenyl)-N-ethyl-4,6-dimethyl-2-pyrimidinamine]
150 to 151 °C | < 0.5 µM | CCCN(c1nc(C)cc(C)n1)c1ccc(C(C)C)cc1Br [compound 196]
159 to 160 °C | 0.501 to 2 µM | CCCCN(c1nc(C)cc(C)n1)c1ccc(C(C)C)cc1Br [compound 197]
